Assay results reported in patent US20240123079A1 (Seagen Inc., priority 2021, published 2024).
Like-named read-outs stand apart in the source and are kept apart here.

Test system: THP1-Dual™ reporter cells
Assay: THP1-Dual cell reporter assay (IRF-Lucia luciferase reporter)
Type: cell-based, human
Method: THP1-Dual™ Cell Reporter Assay
Potency of compounds and ADCs was evaluated using the THP1-Dual™ cells (InvivoGen PN: thpd-nfis [also referred to as THP1 dual reporter cells]), which contain an IRF-Lucia luciferase reporter. Cells were cultured in RPMI-1640 (Gibco) with 10% heat-inactivated fetal bovine serum, Pen-Strep (100 U/mL-100 μg/mL, Gibco), HEPES (10 mM, Gibco)), sodium pyruvate (1 mM, Gibco), MEM non-essential amino acids (1×, Gibco), GlutaMAX (1×, Gibco), and beta-mercaptoethanol (55 μM, Gibco). Cells were plated in a 96-well flat bottom tissue culture-treated clear polystyrene plate (Corning Costar #3596) at ˜100,000 cells per well in 200 μL with the indicated concentration of the compound or ADC. The supernatant was harvested at 24 hours (compounds) or 48 hours (ADC) post plating for the reporter assay, or as indicated. To measure Lucia reporter signal, 10 μL of the supernatant was combined with 40 μL of QUANTI-Luc™ Luminescence assay reagent (Invivogen PN: rep-qlc1) in a 96-well clear flat bottom tissue culture-treated black polystyrene plate (Corning Costar #3603) and read on a Perkin Elmer Envision plate reader.
STING agonist compounds were assessed for their ability to activate THP1-Dual™ reporter cells, a human monocytic cell line in which type I interferon (IRF) signaling can be monitored via a secreted luciferase reporter protein (Lucia). THP1-Dual™ cells were treated with increasing concentrations of the agonists for 24h, then supernatants were harvested and the Lucia reporter signal was quantified using QUANTI-Luc™ Luminescence assay reagent.

[1] = Homo sapiens, THP1-Dual, free compounds, 24 h, Lucia reporter signal, read-out: EC50
[2] = ADCs: drug linker conjugated to a targeted mAb, 48 h

Question: With `CCn1nc(C)cc1C(=O)Nc1nc2cc(C(N)=O)cc(OC)c2n1C/C=C/Cn1c(NC(=O)c2cccnn2)nc2cc(C(N)=O)cc(OCCCNC)c21` [Compound 79] as the compound, how does the EC50 [1] read?
Answer: > 10 µM

Question: Which EC50 [1] does the source give for `CCn1nc(C)cc1C(=O)Nc1nc2cc(C(N)=O)cc(OC)c2n1C/C=C/Cn1c(NC(=O)c2ccnnc2)nc2cc(C(N)=O)cc(OCCCNC)c21` [Compound 80] here?
Answer: > 10 µM

Question: For `CCn1nc(C)cc1C(=O)Nc1nc2cc(C(N)=O)cc(OC)c2n1C/C=C/Cn1c(NC(=O)c2cc(C)on2)nc2cc(C(N)=O)cc(OCCCNC)c21` [Compound 81], which EC50 [1] is on record?
Answer: > 10 µM

Question: For `CCn1nc(C)cc1C(=O)Nc1nc2cc(C(N)=O)cc(OC)c2n1C/C=C/Cn1c(NC(=O)c2cc(C)no2)nc2cc(C(N)=O)cc(OCCCNC)c21` [Compound 82], which EC50 [1] is on record?
Answer: > 10 µM

Question: Which EC50 [1] does the source give for `CCn1nc(C)cc1C(=O)Nc1nc2cc(C(N)=O)cc(OC)c2n1C/C=C/Cn1c(NC(=O)c2cc(C)ns2)nc2cc(C(N)=O)cc(OCCCNC)c21` [Compound 83] here?
Answer: > 10 µM

Question: How did the EC50 [1] turn out when `CCn1nc(C)cc1C(=O)Nc1nc2cc(C(N)=O)cc(OC)c2n1C/C=C/Cn1c(NC(=O)c2ncccn2)nc2cc(C(N)=O)cc(OCCCNC)c21` [Compound 84] was run?
Answer: > 10 µM

Question: How did the EC50 [1] turn out when `CCn1cc(C(=O)Nc2nc3cc(C(N)=O)cc(OCCCNC)c3n2C/C=C/Cn2c(NC(=O)c3cc(C)nn3CC)nc3cc(C(N)=O)cc(OC)c32)c(C)n1` [Compound 85] was run?
Answer: > 10 µM

Question: With `CCn1cc(C)nc1C(=O)Nc1nc2cc(C(N)=O)cc(OCCCNC)c2n1C/C=C/Cn1c(NC(=O)c2cc(C)nn2CC)nc2cc(C(N)=O)cc(OC)c21` [Compound 86] as the compound, how does the EC50 [1] read?
Answer: 2.46 µM

Question: Which EC50 [1] does the source give for `CCc1cc(C(=O)Nc2nc3cc(C(N)=O)cc(OCCCNC)c3n2C/C=C/Cn2c(NC(=O)c3cc(C)nn3CC)nc3cc(C(N)=O)cc(OC)c32)n(C)n1` [Compound 87] here?
Answer: > 10 µM

Question: For `CCn1nc(C)cc1C(=O)Nc1nc2cc(C(N)=O)cc(OC)c2n1C/C=C/Cn1c(NC(=O)c2cc(C)nn2C)nc2cc(C(N)=O)cc(OCCCNC)c21` [Compound 88], which EC50 [1] is on record?
Answer: 0.394 µM

Question: With `CCc1oc(C)cc1C(=O)Nc1nc2cc(C(N)=O)cc(OCCCNC)c2n1C/C=C/Cn1c(NC(=O)c2cc(C)nn2CC)nc2cc(C(N)=O)cc(OC)c21` [Compound 89] as the compound, how does the EC50 [1] read?
Answer: 1.32 µM

Question: With `CCn1nc(C)cc1C(=O)Nc1nc2cc(C(N)=O)cc(OC)c2n1C/C=C/Cn1c(NC(=O)c2cc(C)sn2)nc2cc(C(N)=O)cc(OCCCNC)c21` [Compound 90] as the compound, how does the EC50 [1] read?
Answer: > 10 µM

Question: With `CCn1nc(C)cc1C(=O)Nc1nc2cc(C(N)=O)cc(OC)c2n1C/C=C/Cn1c(NC(=O)c2ccnn2CC)nc2cc(C(N)=O)cc(OCCCNC)c21` [Compound 91] as the compound, how does the EC50 [1] read?
Answer: 0.35 µM

Question: For `CCn1nc(C)cc1C(=O)Nc1nc2cc(C(N)=O)cc(OC)c2n1C/C=C/Cn1c(NC(=O)c2cc(C(F)(F)F)nn2CC)nc2cc(C(N)=O)cc(OCCCNC)c21` [Compound 92], which EC50 [1] is on record?
Answer: 1.19 µM

Question: With `CCn1nc(C)cc1C(=O)Nc1nc2cc(C(N)=O)cc(OC)c2n1C/C=C/Cn1c(NC(=O)c2c(C)cnn2C)nc2cc(C(N)=O)cc(OCCCNC)c21` [Compound 93] as the compound, how does the EC50 [1] read?
Answer: > 10 µM

Question: `CCc1nc(C)sc1C(=O)Nc1nc2cc(C(N)=O)cc(OCCCNC)c2n1C/C=C/Cn1c(NC(=O)c2cc(C)nn2CC)nc2cc(C(N)=O)cc(OC)c21` [Compound 94] was tested. Which EC50 [1] did it give?
Answer: 0.133 µM

Question: With `CCc1nc(C)oc1C(=O)Nc1nc2cc(C(N)=O)cc(OCCCNC)c2n1C/C=C/Cn1c(NC(=O)c2cc(C)nn2CC)nc2cc(C(N)=O)cc(OC)c21` [Compound 95] as the compound, how does the EC50 [1] read?
Answer: 0.0129 µM

Question: How did the “EC50 (ng/mL)” value [2] turn out when `CCn1nc(C)cc1C(=O)Nc1nc2cc(C(N)=O)cc(OC)c2n1C/C=C/Cn1c(NC(=O)c2cccnn2)nc2cc(C(N)=O)cc(OCCCN(C)C(=O)CCN3C(=O)C=CC3=O)c21` [Compound 96] was run?
Answer: >10,000 ng/mL

Question: Which “EC50 (ng/mL)” value [2] does the source give for `CCn1nc(C)cc1C(=O)Nc1nc2cc(C(N)=O)cc(OC)c2n1C/C=C/Cn1c(NC(=O)c2ccnnc2)nc2cc(C(N)=O)cc(OCCCN(C)C(=O)CCN3C(=O)C=CC3=O)c21` [Compound 98] here?
Answer: >10,000 ng/mL

Question: How did the “EC50 (ng/mL)” value [2] turn out when `CCn1nc(C)cc1C(=O)Nc1nc2cc(C(N)=O)cc(OC)c2n1C/C=C/Cn1c(NC(=O)c2ncccn2)nc2cc(C(N)=O)cc(OCCCN(C)C(=O)CCN3C(=O)C=CC3=O)c21` [Compound 101] was run?
Answer: >10,000 ng/mL

Question: How did the “EC50 (ng/mL)” value [2] turn out when `CCn1cc(C(=O)Nc2nc3cc(C(N)=O)cc(OCCCN(C)C(=O)CCN4C(=O)C=CC4=O)c3n2C/C=C/Cn2c(NC(=O)c3cc(C)nn3CC)nc3cc(C(N)=O)cc(OC)c32)c(C)n1` [Compound 102] was run?
Answer: >10,000 ng/mL

Question: `CCn1cc(C)nc1C(=O)Nc1nc2cc(C(N)=O)cc(OCCCN(C)C(=O)CCN3C(=O)C=CC3=O)c2n1C/C=C/Cn1c(NC(=O)c2cc(C)nn2CC)nc2cc(C(N)=O)cc(OC)c21` [Compound 103] was tested. Which “EC50 (ng/mL)” value [2] did it give?
Answer: >10,000 ng/mL

Question: For `CCc1cc(C(=O)Nc2nc3cc(C(N)=O)cc(OCCCN(C)C(=O)CCN4C(=O)C=CC4=O)c3n2C/C=C/Cn2c(NC(=O)c3cc(C)nn3CC)nc3cc(C(N)=O)cc(OC)c32)n(C)n1` [Compound 104], which “EC50 (ng/mL)” value [2] is on record?
Answer: >10,000 ng/mL

Question: How did the “EC50” value [2] turn out when `CCn1nc(C)cc1C(=O)Nc1nc2cc(C(N)=O)cc(OC)c2n1C/C=C/Cn1c(NC(=O)c2cc(C)nn2C)nc2cc(C(N)=O)cc(OCCCN(C)C(=O)CCN3C(=O)C=CC3=O)c21` [Compound 105] was run?
Answer: 0.0525 µg/mL

Question: Which “EC50 (ng/mL)” value [2] does the source give for `CCc1oc(C)cc1C(=O)Nc1nc2cc(C(N)=O)cc(OCCCN(C)C(=O)CCN3C(=O)C=CC3=O)c2n1C/C=C/Cn1c(NC(=O)c2cc(C)nn2CC)nc2cc(C(N)=O)cc(OC)c21` [Compound 106] here?
Answer: >10,000 ng/mL

Question: Which “EC50 (ng/mL)” value [2] does the source give for `CCn1nc(C)cc1C(=O)Nc1nc2cc(C(N)=O)cc(OC)c2n1C/C=C/Cn1c(NC(=O)c2cc(C)sn2)nc2cc(C(N)=O)cc(OCCCN(C)C(=O)CCN3C(=O)C=CC3=O)c21` [Compound 107] here?
Answer: >10,000 ng/mL

Question: For `CCn1nc(C)cc1C(=O)Nc1nc2cc(C(N)=O)cc(OC)c2n1C/C=C/Cn1c(NC(=O)c2ccnn2CC)nc2cc(C(N)=O)cc(OCCCN(C)C(=O)CCN3C(=O)C=CC3=O)c21` [Compound 108], which “EC50” value [2] is on record?
Answer: 0.0635 µg/mL

Question: With `CCn1nc(C)cc1C(=O)Nc1nc2cc(C(N)=O)cc(OC)c2n1C/C=C/Cn1c(NC(=O)c2cc(C(F)(F)F)nn2CC)nc2cc(C(N)=O)cc(OCCCN(C)C(=O)CCN3C(=O)C=CC3=O)c21` [Compound 109] as the compound, how does the “EC50 (ng/mL)” value [2] read?
Answer: >10,000 ng/mL

Question: How did the “EC50 (ng/mL)” value [2] turn out when `CCn1nc(C)cc1C(=O)Nc1nc2cc(C(N)=O)cc(OC)c2n1C/C=C/Cn1c(NC(=O)c2c(C)cnn2C)nc2cc(C(N)=O)cc(OCCCN(C)C(=O)CCN3C(=O)C=CC3=O)c21` [Compound 110] was run?
Answer: >10,000 ng/mL

Question: Which “EC50” value [2] does the source give for `CCc1nc(C)sc1C(=O)Nc1nc2cc(C(N)=O)cc(OCCCN(C)C(=O)CCN3C(=O)C=CC3=O)c2n1C/C=C/Cn1c(NC(=O)c2cc(C)nn2CC)nc2cc(C(N)=O)cc(OC)c21` [Compound 111] here?
Answer: 0.0132 µg/mL

Question: `CCc1nc(C)oc1C(=O)Nc1nc2cc(C(N)=O)cc(OCCCN(C)C(=O)CCN3C(=O)C=CC3=O)c2n1C/C=C/Cn1c(NC(=O)c2cc(C)nn2CC)nc2cc(C(N)=O)cc(OC)c21` [Compound 112] was tested. Which “EC50” value [2] did it give?
Answer: 0.002 µg/mL

Question: How did the EC50 [1] turn out when `CCn1nc(C)cc1C(=O)Nc1nc2cc(C(N)=O)cc(OC)c2n1C/C=C/Cn1c(NC(=O)c2cc(C)nn2CC)nc2cc(C(N)=O)cc(OCCCN(C)C(=O)[C@@H](N)CC(C)C)c21` [Compound 114] was run?
Answer: 0.0094 µM

Question: Which EC50 [1] does the source give for `CC[C@H](C)[C@H](N)C(=O)N(C)CCCOc1cc(C(N)=O)cc2nc(NC(=O)c3cc(C)nn3CC)n(C/C=C/Cn3c(NC(=O)c4cc(C)nn4CC)nc4cc(C(N)=O)cc(OC)c43)c12` [Compound 115] here?
Answer: 0.0174 µM

Question: With `CCn1nc(C)cc1C(=O)Nc1nc2cc(C(N)=O)cc(OC)c2n1C/C=C/Cn1c(NC(=O)c2cc(C)nn2CC)nc2cc(C(N)=O)cc(OCCCN(C)C(=O)[C@@H](N)Cc3ccccc3)c21` [Compound 116] as the compound, how does the EC50 [1] read?
Answer: 0.0116 µM
